Legend:
Assay in all cases: Ba/F3 drug screening, Cell Titer Glo, IC50 Mut/WT
Assay type in all cases: cell-based
[1] = molecular target: T1, EGFR L858R/C797S (Homo sapiens, UniProt P00533, C797S/L858R)
T1 construct: expressed in transfected cells; host or cells: Ba/F3
Protocol: (§1) Data represent the ratio of the IC50 value for a given TKI for cells with a PACC EGFR mutation to the IC50 value for cells with wildtype EGFR.
(§2) Ba/F3 cell generation, drug screening, and IC50 approximations. Ba/F3 cells were obtained as a gift from Dr. Gordon Mills (MD Anderson Cancer Center), and maintained in RPMI (Sigma) containing 10% FBS, 1% penicillin/streptomycin, and 10 ng/ml recombinant mIL-3 (R&D Biosystems). To establish stable Ba/F3 cell lines, Ba/F3 cells were transduced with retroviruses containing mutant EGFR plasmids for 12-24 hours.
(§3) After 48-72 hours of transduction, 2 μg/ml puromycin (Invitrogen) was added to Ba/F3 cell lines in complete RPMI. To select for EGFR positive cell lines, cells were stained with PE-EGFR (Biolegend) and sorted by FACS. After sorting, EGFR positive cells were maintained in RPMI containing 10% FBS, 1% penicillin/streptomycin, and 1 ng/ml EGF to support cell viability. Drug screening was performed as previously described^41,42. Shortly, cells were plated in 384-well plates (Greiner Bio-One) at 2000-3000 cells per well in technical triplicate. Seven different concentrations of TKIs or DMSO vehicle were added to reach a final volume of 40 μL per well. After 72 hours, 11 μL of Cell Titer Glo (Promega) was added to each well. Plates were incubated for a minimum of 10 minutes, and bioluminescence was determined using a FLUOstar OPTIMA plate reader (BMG LABTECH). Raw bioluminescence values were normalized to DMSO control treated cells, and values were plotted in GraphPad Prism. […] Drug screens were performed in technical triplicate on each plate and either duplicate or triplicate biological replicates.

[2] = molecular target: T2, EGFR L858R/T790M (Homo sapiens, UniProt P00533, L858R/T790M); conditions: T790M-like-3S, 72 hours
T2 construct: expressed in transfected cells; host or cells: Ba/F3
Protocol: (§4) Data represent the ratio of the IC50 value for a given TKI for cells with a T790M-like-3S EGFR mutation to the IC50 value for cells with wildtype EGFR.
as §2, §3

[3] = molecular target: T3, EGFR K754E (Homo sapiens, UniProt P00533, K754E); conditions: Classical-Like, 72 hours
T3 construct: expressed in transfected cells; host or cells: Ba/F3 cells, retroviral pBabe-Puro vector

[4] = molecular target: T4, EGFR S811F (Homo sapiens, UniProt P00533, S811F); conditions: Classical-Like, 72 hours
T4 construct: expressed in transfected cells; host or cells: Ba/F3 cells, retroviral pBabe-Puro vector (vector made by GeneScript from EGFR WT)
Protocol: (§5) Data represent the ratio of the IC50 value for a given TKI for cells with a classical-like EGFR mutation to the IC50 value for cells with wildtype EGFR.
as §2
(§6) After 48-72 hours of transduction, 2 μg/ml puromycin (Invitrogen) was added to Ba/F3 cell lines in complete RPMI. To select for EGFR positive cell lines, cells were stained with PE-EGFR (Biolegend) and sorted by FACS. After sorting, EGFR positive cells were maintained in RPMI containing 10% FBS, 1% penicillin/streptomycin, and 1 ng/ml EGF to support cell viability. […] Shortly, cells were plated in 384-well plates (Greiner Bio-One) at 2000-3000 cells per well in technical triplicate. Seven different concentrations of TKIs or DMSO vehicle were added to reach a final volume of 40 μL per well. After 72 hours, 11 μL of Cell Titer Glo (Promega) was added to each well. Plates were incubated for a minimum of 10 minutes, and bioluminescence was determined using a FLUOstar OPTIMA plate reader (BMG LABTECH). Raw bioluminescence values were normalized to DMSO control treated cells, and values were plotted in GraphPad Prism. […] Drug screens were performed in technical triplicate on each plate and either duplicate or triplicate biological replicates.

[5] = molecular target: T5, EGFR L858R (Homo sapiens, UniProt P00533, L858R); conditions: Classical-Like, 72 hours
T5 construct: expressed in transfected cells; host or cells: Ba/F3 cells, retroviral pBabe-Puro vector

[6] = molecular target: T6, EGFR L858R T790M L792H (Homo sapiens, UniProt P00533, L792H/L858R/T790M); conditions: T790M-like-3S, 72 hours
T6 construct: expressed in transfected cells; host or cells: Ba/F3

[7] = molecular target: T7, EGFR D770insNPG (Homo sapiens, UniProt P00533, INS770NPG); conditions: Ex20, 72 hours
T7 construct: expressed in transfected cells; host or cells: Ba/F3 cells, retroviral pBabe-Puro vector
Protocol: Data represent the ratio of the IC50 value for a given TKI for cells with an ex20ins EGFR mutation to the IC50 value for cells with wildtype EGFR.
as §2
After 48-72 hours of transduction, 2 μg/ml puromycin (Invitrogen) was added to Ba/F3 cell lines in complete RPMI. To select for EGFR positive cell lines, cells were stained with PE-EGFR (Biolegend) and sorted by FACS. After sorting, EGFR positive cells were maintained in RPMI containing 10% FBS, 1% penicillin/streptomycin, and 1 ng/ml EGF to support cell viability. Drug screening was performed as previously described^41,42. Shortly, cells were plated in 384-well plates (Greiner Bio-One) at 2000-3000 cells per well in technical triplicate. Seven different concentrations of TKIs or DMSO vehicle were added to reach a final volume of 40 μL per well. After 72 hours, 11 μL of Cell Titer Glo (Promega) was added to each well. Plates were incubated for a minimum of 10 minutes, and bioluminescence was determined using a FLUOstar OPTIMA plate reader (BMG LABTECH). Raw bioluminescence values were normalized to DMSO control treated cells, and values were plotted in GraphPad Prism. […] Drug screens were performed in technical triplicate on each plate and either duplicate or triplicate biological replicates. […] Statistical differences between groups were determined by ANOVA as described in the figure legends.

[8] = molecular target: T8, EGFR E709K G719S (Homo sapiens, UniProt P00533, E709K/G719S)
T8 construct: expressed in transfected cells; host or cells: Ba/F3
Protocol: as §1, §2, §3

[9] = molecular target: T9, EGFR L858R/L718V (Homo sapiens, UniProt P00533, L718V/L858R)
T9 construct: host or cells: Ba/F3
Protocol: as §1, §2, §3

[10] = molecular target: T10, EGFR L747_K754del insATSPE (Homo sapiens, UniProt P00533, DEL747-749/K754E); conditions: T790M-like-3S, 72 hours
T10 construct: expressed in transfected cells; host or cells: Ba/F3 cells, retroviral pBabe-Puro vector
Protocol: as §4, §2, §3

[11] = molecular target: T11, EGFR G724S T790M (Homo sapiens, UniProt P00533, G724S/T790M); conditions: T790M-like-3R, 72 hours
T11 construct: expressed in transfected cells; host or cells: Ba/F3
Protocol: Data represent the ratio of the IC50 value for a given TKI for cells with a T790M-like-3R EGFR mutation to the IC50 value for cells with wildtype EGFR.
as §2
After 48-72 hours of transduction, 2 μg/ml puromycin (Invitrogen) was added to Ba/F3 cell lines in complete RPMI. To select for EGFR positive cell lines, cells were stained with PE-EGFR (Biolegend) and sorted by FACS. After sorting, EGFR positive cells were maintained in RPMI containing 10% FBS, 1% penicillin/streptomycin, and 1 ng/ml EGF to support cell viability. […] Shortly, cells were plated in 384-well plates (Greiner Bio-One) at 2000-3000 cells per well in technical triplicate. Seven different concentrations of TKIs or DMSO vehicle were added to reach a final volume of 40 μL per well. After 72 hours, 11 μL of Cell Titer Glo (Promega) was added to each well. Plates were incubated for a minimum of 10 minutes, and bioluminescence was determined using a FLUOstar OPTIMA plate reader (BMG LABTECH). Raw bioluminescence values were normalized to DMSO control treated cells, and values were plotted in GraphPad Prism. […] Drug screens were performed in technical triplicate on each plate and either duplicate or triplicate biological replicates. […] Statistical differences between groups were determined by ANOVA as described in the figure legends.

[12] = molecular target: T12, EGFR G719A/R776C (Homo sapiens, UniProt P00533, G719A/R776C)
T12 construct: expressed in transfected cells; host or cells: Ba/F3

[13] = molecular target: T13, EGFR L718Q (Homo sapiens, UniProt P00533, L718Q)
T13 construct: expressed in transfected cells; host or cells: Ba/F3
Protocol: as §1, §2, §3

[14] = molecular target: T14, EGFR S768I (Homo sapiens, UniProt P00533, S768I)
T14 construct: expressed in transfected cells; host or cells: Ba/F3

[15] = molecular target: T15, EGFR Ex19del T790M L718V (Homo sapiens, UniProt P00533, DEL746-750/L718V/T790M); conditions: T790M-like-3S, 72 hours
T15 construct: expressed in transfected cells; host or cells: Ba/F3

[16] = molecular target: T16, EGFR Ex19del/T790M/G724S (Homo sapiens, UniProt P00533, DEL746-750/G724S/T790M); conditions: T790M-like-3S, 72 hours
T16 construct: expressed in transfected cells; host or cells: Ba/F3

[17] = molecular target: T17, EGFR L858R L718Q (Homo sapiens, UniProt P00533, L718Q/L858R)
T17 construct: host or cells: Ba/F3

[18] = molecular target: T18, EGFR G724S (Homo sapiens, UniProt P00533, G724S)
T18 construct: expressed in transfected cells; host or cells: Ba/F3

[19] = molecular target: T19, EGFR R776H (Homo sapiens, UniProt P00533, R776H)
T19 construct: host or cells: Ba/F3

[20] = molecular target: T20, EGFR S768I/T790M (Homo sapiens, UniProt P00533, S768I/T790M); conditions: T790M-like-3S, 72 hours
T20 construct: expressed in transfected cells; host or cells: Ba/F3

[21] = molecular target: T21, EGFR L858R/V834L (Homo sapiens, UniProt P00533, L858R/V834L); conditions: Classical-Like, 72 hours
T21 construct: expressed in transfected cells; host or cells: Ba/F3 cells, retroviral pBabe-Puro vector
Protocol: as §5, §2, §6

[22] = molecular target: T22, EGFR Ex19del/T790M/L792H (Homo sapiens, UniProt P00533, DEL746-750/L792H/T790M); conditions: T790M-like-3R, 72 hours
T22 construct: expressed in transfected cells; host or cells: Ba/F3

[23] = molecular target: T23, EGFR Ex19del/C797S (Homo sapiens, UniProt P00533, C797S/DEL746-750)
T23 construct: expressed in transfected cells; host or cells: Ba/F3
Protocol: as §1, §2, §3

[24] = molecular target: T24, EGFR S768I/V769L (Homo sapiens, UniProt P00533, S768I/V769L)
T24 construct: host or cells: Ba/F3

[25] = molecular target: T25, EGFR L718V (Homo sapiens, UniProt P00533, L718V)
T25 construct: expressed in transfected cells; host or cells: Ba/F3

[26] = molecular target: T26, EGFR S768I V774M (Homo sapiens, UniProt P00533, S768I/V774M)
T26 construct: host or cells: Ba/F3

[27] = molecular target: T27, EGFR N771dupN (Homo sapiens, UniProt P00533, DUP771-771); conditions: Ex20, 72 hours
T27 construct: expressed in transfected cells; host or cells: Ba/F3 cells, retroviral pBabe-Puro vector

C=CC(=O)Nc1cc(Nc2nccc(-n3cc(CN(C)C)c(-c4ccccc4)n3)n2)c(OC)cc1N1CCOCC1 [Lazertinib]
ratio of the IC50 value for cells with a PACC EGFR mutation to the IC50 value for cells with wildtype EGFR ([1]; Ba/F3 cells, EGFR L858R/C797S (PACC), Mut/WT): 28.05
ratio of IC50 for cells with mutant EGFR to IC50 for cells with wildtype EGFR (Mut/WT) [2]: 0.0336
ratio of IC50 for cells with mutant EGFR to IC50 for cells with wildtype EGFR (Mut/WT) [3]: 0.1385
ratio of IC50 for cells with mutant EGFR to IC50 for cells with wildtype EGFR (Mut/WT) [4]: 0.01158
ratio of IC50 for cells with mutant EGFR to IC50 for cells with wildtype EGFR (Mut/WT) [5]: 0.03702
ratio of IC50 for cells with mutant EGFR to IC50 for cells with wildtype EGFR (Mut/WT) [6]: 0.0005009
ratio of IC50 for cells with mutant EGFR to IC50 for cells with wildtype EGFR (Mut/WT) [7]: 4.93
ratio of the IC50 value for cells with a PACC EGFR mutation to the IC50 value for cells with wildtype EGFR ([8]; Ba/F3 cells, EGFR E709K G719S (PACC), Mut/WT): 0.2652
ratio of the IC50 value for cells with a PACC EGFR mutation to the IC50 value for cells with wildtype EGFR ([9]; Ba/F3 cells, EGFR L858R/L718V (PACC), Mut/WT): 2.619
ratio of IC50 for cells with mutant EGFR to IC50 for cells with wildtype EGFR (Mut/WT) [10]: 2.781
ratio of IC50 for cells with mutant EGFR to IC50 for cells with wildtype EGFR (Mut/WT) [11]: 26.17
ratio of the IC50 value for cells with a PACC EGFR mutation to the IC50 value for cells with wildtype EGFR ([12]; Ba/F3 cells, EGFR G719A/R776C (PACC), Mut/WT): 0.5224
ratio of the IC50 value for cells with a PACC EGFR mutation to the IC50 value for cells with wildtype EGFR ([13]; Ba/F3 cells, EGFR L718Q (PACC), Mut/WT): 5.442
ratio of the IC50 value for cells with a PACC EGFR mutation to the IC50 value for cells with wildtype EGFR ([14]; Ba/F3 cells, EGFR S768I (PACC), Mut/WT): 1.26
ratio of IC50 for cells with mutant EGFR to IC50 for cells with wildtype EGFR (Mut/WT) [15]: 0.4667
ratio of IC50 for cells with mutant EGFR to IC50 for cells with wildtype EGFR (Mut/WT) [16]: 0.02984
ratio of the IC50 value for cells with a PACC EGFR mutation to the IC50 value for cells with wildtype EGFR ([17]; Ba/F3 cells, EGFR L858R L718Q (PACC), Mut/WT): 3.064
ratio of the IC50 value for cells with a PACC EGFR mutation to the IC50 value for cells with wildtype EGFR ([18]; Ba/F3 cells, EGFR G724S (PACC), Mut/WT): 26.17
ratio of the IC50 value for cells with a PACC EGFR mutation to the IC50 value for cells with wildtype EGFR ([19]; Ba/F3 cells, EGFR R776H (PACC), Mut/WT): 0.6077
ratio of IC50 for cells with mutant EGFR to IC50 for cells with wildtype EGFR (Mut/WT) [20]: 0.5236
ratio of IC50 for cells with mutant EGFR to IC50 for cells with wildtype EGFR (Mut/WT) [21]: 0.003768
ratio of IC50 for cells with mutant EGFR to IC50 for cells with wildtype EGFR (Mut/WT) [22]: 1.105
ratio of the IC50 value for cells with a PACC EGFR mutation to the IC50 value for cells with wildtype EGFR ([23]; Ba/F3 cells, EGFR Ex19del/C797S (PACC), Mut/WT): 11.82
ratio of the IC50 value for cells with a PACC EGFR mutation to the IC50 value for cells with wildtype EGFR ([24]; Ba/F3 cells, EGFR S768I/V769L (PACC), Mut/WT): 0.666
ratio of the IC50 value for cells with a PACC EGFR mutation to the IC50 value for cells with wildtype EGFR ([25]; Ba/F3 cells, EGFR L718V (PACC), Mut/WT): 0.6184
ratio of the IC50 value for cells with a PACC EGFR mutation to the IC50 value for cells with wildtype EGFR ([26]; Ba/F3 cells, EGFR S768I V774M (PACC), Mut/WT): 0.7678

CNC(=O)CN1CCC(Oc2cc3c(Nc4cccc(Cl)c4F)ncnc3cc2OC)CC1 [Sapatinib]
ratio of IC50 for cells with mutant EGFR to IC50 for cells with wildtype EGFR (Mut/WT) ([1]; PACC, L858R/C797S, Ba/F3, 72 hours): 0.001101
ratio of IC50 for cells with mutant EGFR to IC50 for cells with wildtype EGFR (Mut/WT) [2]: 38.86
ratio of IC50 for cells with mutant EGFR to IC50 for cells with wildtype EGFR (Mut/WT) [3]: 0.00307
ratio of IC50 for cells with mutant EGFR to IC50 for cells with wildtype EGFR (Mut/WT) [4]: 0.006549
ratio of IC50 for cells with mutant EGFR to IC50 for cells with wildtype EGFR (Mut/WT) [27]: 1.24
ratio of IC50 for cells with mutant EGFR to IC50 for cells with wildtype EGFR (Mut/WT) [5]: 0.0006817
ratio of IC50 for cells with mutant EGFR to IC50 for cells with wildtype EGFR (Mut/WT) [6]: 54.78
ratio of IC50 for cells with mutant EGFR to IC50 for cells with wildtype EGFR (Mut/WT) [7]: 5.022
ratio of IC50 for cells with mutant EGFR to IC50 for cells with wildtype EGFR (Mut/WT) ([8]; PACC, E709K G719S, Ba/F3, 72 hours): 0.01102
ratio of IC50 for cells with mutant EGFR to IC50 for cells with wildtype EGFR (Mut/WT) ([9]; PACC, L858R/L718V, Ba/F3, 72 hours): 0.05575
ratio of IC50 for cells with mutant EGFR to IC50 for cells with wildtype EGFR (Mut/WT) [10]: 7.978
ratio of IC50 for cells with mutant EGFR to IC50 for cells with wildtype EGFR (Mut/WT) [11]: 48.62
ratio of IC50 for cells with mutant EGFR to IC50 for cells with wildtype EGFR (Mut/WT) ([12]; PACC, G719A/R776C, Ba/F3, 72 hours): 0.0489
ratio of IC50 for cells with mutant EGFR to IC50 for cells with wildtype EGFR (Mut/WT) ([13]; PACC, L718Q, Ba/F3, 72 hours): 2.03
ratio of IC50 for cells with mutant EGFR to IC50 for cells with wildtype EGFR (Mut/WT) ([14]; PACC, S768I, Ba/F3, 72 hours): 0.1883
ratio of IC50 for cells with mutant EGFR to IC50 for cells with wildtype EGFR (Mut/WT) [16]: 26.15
ratio of IC50 for cells with mutant EGFR to IC50 for cells with wildtype EGFR (Mut/WT) ([17]; PACC, L858R L718Q, Ba/F3, 72 hours): 0.1961
ratio of IC50 for cells with mutant EGFR to IC50 for cells with wildtype EGFR (Mut/WT) ([18]; PACC, G724S, Ba/F3, 72 hours): 0.141
ratio of IC50 for cells with mutant EGFR to IC50 for cells with wildtype EGFR (Mut/WT) ([19]; PACC, R776H, Ba/F3, 72 hours): 0.001939
ratio of IC50 for cells with mutant EGFR to IC50 for cells with wildtype EGFR (Mut/WT) [20]: 54.78
ratio of IC50 for cells with mutant EGFR to IC50 for cells with wildtype EGFR (Mut/WT) [21]: 0.001889
ratio of IC50 for cells with mutant EGFR to IC50 for cells with wildtype EGFR (Mut/WT) [22]: 451.7
ratio of IC50 for cells with mutant EGFR to IC50 for cells with wildtype EGFR (Mut/WT) ([23]; PACC, Ex19del/C797S, Ba/F3, 72 hours): 0.0006085
ratio of IC50 for cells with mutant EGFR to IC50 for cells with wildtype EGFR (Mut/WT) ([24]; PACC, S768I/V769L, Ba/F3, 72 hours): 0.2596
ratio of IC50 for cells with mutant EGFR to IC50 for cells with wildtype EGFR (Mut/WT) ([25]; PACC, L718V, Ba/F3, 72 hours): 1.264
ratio of IC50 for cells with mutant EGFR to IC50 for cells with wildtype EGFR (Mut/WT) ([26]; PACC, S768I V774M, Ba/F3, 72 hours): 0.2648
